“And” between values parts separate entries of the source, which are not always exact repeats. Equal entries are not always repeated. Where two headings read alike, the source gives them in different places.
How the values were obtained:
[1] = target: human recombinant ALR2 (Homo sapiens, UniProt P15121); assay: ALR2 enzyme inhibition assay (NADPH oxidation, D,L-glyceraldehyde substrate); assay type: biochemical
Protocol: (§1) All the title compounds were tested for their inhibitory activity against human recombinant ALR2.
(§2) The ALR2 inhibition activity was evaluated in a mixture of reaction with 50 μL NADPH (0.1 mM), 50 μL sodium phosphate buffer (pH = 6.2, 100 mM), 50 μL human recombinant ALR2, 1 μL dimethyl sulfoxide (DMSO) as solvent, and 50 μL D,L-glyceraldehyde (10 mM) which served as a substrate. […] Before the substrate was added, the mixture was incubated at 30 °C for 3 min, then the reaction was started when the substrate was added, and was monitored for 4 min.
(§3) The inhibitory activities of the title synthetic compounds against ALR2 and ALR1 were examined by adding 1 μL of the inhibitor solution to the ALR2 or ALR1 mixtures. All compounds were dissolved in DMSO, and the solutions were diluted with DMSO to desirable concentrations. To correct for the nonenzymatic oxidation of NADPH, the rate of NADPH oxidation in the presence of all of the reaction mixture components except the substrate was subtracted from each experimental rate. […] The inhibitory rates of tested compounds were calculated by equation as follows:Inhibitory rate (%) = (1 − ∆Asample/∆AE+DMSO) × 100%(1) sample = enzyme + compound + DMSO(2) E + DMSO = enzyme + DMSO(3)
(§4) The experiments were performed in triplicate.

[2] = target: T1, human recombinant ALR1 (Homo sapiens, UniProt P14550); assay: ALR1 enzyme inhibition assay (NADPH oxidation, sodium D-gluconate substrate); assay type: biochemical; settings: for inhibition at 100 µM: read-out: ALR1 Inh. %; for SI: selectivity index, defined as IC50[ALR1]: IC50[ALR2]
T1 sequence (P14550 1-325): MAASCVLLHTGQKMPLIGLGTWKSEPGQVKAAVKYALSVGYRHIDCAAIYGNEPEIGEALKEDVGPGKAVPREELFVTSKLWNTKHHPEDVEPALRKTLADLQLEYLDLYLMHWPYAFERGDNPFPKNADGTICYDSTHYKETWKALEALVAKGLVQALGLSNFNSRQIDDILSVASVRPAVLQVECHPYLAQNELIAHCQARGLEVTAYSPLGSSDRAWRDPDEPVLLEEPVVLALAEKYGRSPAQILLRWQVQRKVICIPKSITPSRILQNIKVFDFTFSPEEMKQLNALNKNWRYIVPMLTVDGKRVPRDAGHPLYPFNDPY
Protocol: as §1
as §2, with “min. The ALR1 inhibition activity experiment was conducted at 37 °C in the mixture containing 50 μL NADPH (0.12 mM), 50 μL human recombinant ALR1, 50 μL sodium phosphate buffer (pH = 7.2, 100 mM), 50 μL sodium […] (20 mM) as a substrate, and 1 μL DMSO as solvent. Before the substrate sodium […] was added, the mixture was incubated at 37 °C for 3 min, then the substrate was added to start the reaction, which was monitored for 4 min.” for “min.”
as §3, with “rate. The title compounds were tested at concentrations ranging from 100 μM to 1 μM, except compound 7l which were tested 10 μM to 0.1 μM.” for “rate.”
as §4

[3] = DPPH radical scavenging assay; settings: n = 3
Protocol: In this part, the antioxidant activity was measured by an intrinsic chemical reactivity toward radicals, in a homogeneous reaction system of the methanol solution of 1,1-diphenyl-2-trinitrophenylhydrazine (DPPH) (0.2 mM), and 6-hydroxy-2,5,7,8-tetramethyl- chroman-2-carboxylic acid (Trolox) served as a reference compound.
(§5) Antioxidant assays were performed with the similar protocol as described previously.

[4] = system: lipid peroxidation in rat brain homogenate; assay: Lipid peroxidation suppression (TBARS/MDA) in rat brain homogenate induced by Fe(III)/ascorbic acid; assay type: biochemical; settings: tested in concentration of 100 μM, n = 3
Excerpt: Lipid peroxidation reactions involve free radical attacks on unsaturated fatty acid, producing free radicals and lipid peroxides which eventually harm the organism and usually decompose to form poisonous malonaldehyde (MDA). Thiobarbituric acid reactive substances (TBARS), which generated from the condensation of thiobarbituric acid and malondialdehyde, are considered as key biomarkers to determine the level of lipid peroxidation. For further identification that the derivatives tested in DPPH scavenging assay can be effective in heterogeneous oxidative pathway, the suppression effect of compounds on the hydroxyl radical-dependent lipoperoxidation in rat brain homogenate oxidant system which induced by Fe(III)/ascorbic acid was also evaluated.
Compounds 7a, 7c, 7g and 7k–l that were already described in the DPPH radical scavenging activity were investigated in the suppression of lipid peroxidation (Table 3).
as §5

[5] = system: lipid peroxidation in rat brain homogenate; set-up: method as in Chaves S. et al. [37]; settings: ref Chaves S. et al. [37]; cited from earlier work
[6] = set-up: method as in Lewis F. W. et al [36]; settings: 100 μM column; ref Lewis F. W. et al [36]; cited from earlier work
[7] = n = 3, mean ± SD, read-out: IC50 for ALR2
[8] = raw data, average of three replicates, unit not given (molar scale), read-out: IC50 average (ALR2)
[9] = raw data, single replicate, unit not given (molar scale by log(dose)), read-out: IC50 (ALR2)
[10] = tested in concentration of 100 μM, n = 3

SMILES | IC50 [1, 7] [µM] | IC50 [1, 8] [µM] | IC50 [1, 9] | IC50 ([2]; n = 3) [µM] | % of Inhibition of Control Value (DPPH) ([3]; 100 μM) [%] | MDA inh. % [4] [%] | inhibition at 100 µM [2, 10] [%] | also measured
O=C(O)Cn1cc(O)c(=O)cc1C=Cc1ccc(F)cc1 [7f, {2-[2-(4-Fluoro-phenyl)-vinyl]-5-hydroxy-4-oxo-4H-pyridin-1-yl}-acetic acid] | 6.64 ± 2.39 | 6.64 | 4.52 µM and 9.99 µM and 5.42 µM |  |  |  |  | 
O=C(O)Cn1cc(O)c(=O)cc1C=Cc1ccc(C(F)(F)F)cc1 [7h, {5-Hydroxy-4-oxo-2-[2-(4-trifluoromethyl-phenyl)-vinyl]-4H-pyridin-1-yl}-acetic acid] | 10.7 ± 1.47 | 10.7 | 8.88 µM and 10.8 µM and 12.5 µM |  |  |  |  | 
CC(/C=C1\SC(=S)N(CC(=O)O)C1=O)=C\c1ccccc1 [epalrestat, reference compound] |  |  |  | 3.56 ± 0.18 |  |  |  | inhibition at 100 µM [2]: 80.8 ± 3.74%
O=C(O)Cn1cc(O)c(=O)cc1C=Cc1ccccc1 [7a, (5-Hydroxy-4-oxo-2-styryl-4H-pyridin-1-yl)-acetic acid] | 8.41 ± 0.63 | 8.41 | 7.85 µM and 8.09 µM and 9.28 µM | > 100 | 22.90 ± 3.30 | 19.28 ± 0.98 | 38.8 ± 1.75 | melting point: 254 to 255 °C
Cc1c(C)c2c(c(C)c1O)CCC(C)(C(=O)O)O2 (stereo not drawn) [Trolox, 6-hydroxy-2,5,7,8-tetramethyl-chroman-2-carboxylic acid, reference compound] |  |  |  |  | 92.32 ± 0.19 | 74.82 ± 1.82 |  | % of Inhibition of Control Value (DPPH) ([3]; 1 μM): 11.89 ± 1.39%; % of Inhibition of Control Value (DPPH) ([3]; 5 μM): 45.53 ± 1.12%; % of Inhibition of Control Value (DPPH) ([3]; 10 μM): 80.33 ± 1.22%
O=C(O)Cn1cc(O)c(=O)cc1C=Cc1ccc(O)cc1 [7k, {5-Hydroxy-2-[2-(4-hydroxy-phenyl)-vinyl]-4-oxo-4H-pyridin-1-yl}-acetic acid] | 2.36 ± 0.42 |  | 2.63 µM and 1.86 µM and 2.86 µM | 15 ± 0.54 | 96.69 ± 0.72 | 90.73 ± 3.97 | 75.8 ± 2.34 | % of Inhibition of Control Value (DPPH) ([3]; 1 μM): 33.08 ± 0.72%; % of Inhibition of Control Value (DPPH) ([3]; 5 μM): 72.01 ± 1.80%; % of Inhibition of Control Value (DPPH) ([3]; 10 μM): 89.31 ± 0.62%; SI [2]: 6.36
Cc1c(O)c(=O)ccn1C [Deferiprone, 3-hydroxy-1,2-dimethyl-1H-pyridin-4-one] |  |  |  |  |  |  |  | MDA inh. % [5]: 25%; % of Inhibition of Control Value (DPPH) [6]: 63%
CS(=O)(=O)c1ccc(C=Cc2cc(=O)c(O)cn2CC(=O)O)cc1 [7i, {5-Hydroxy-2-[2-(4-methanesulfonyl-phenyl)-vinyl]-4-oxo-4H-pyridin-1-yl}-acetic acid] | 17.1 ± 2.3 | 17.1 | 16.1 µM and 20.3 µM and 15 µM |  |  |  |  | 
O=C(O)Cn1cc(O)c(=O)cc1C=Cc1ccc(O)c(O)c1 [7l, {2-[2-(3,4-Dihydroxy-phenyl)-vinyl]-5-hydroxy-4-oxo-4H-pyridin-1-yl}-acetic acid] | 0.789 ± 0.183 | 0.789 | 0.916 µM and 0.921 µM and 0.53 µM | 19.9 ± 1.72 | 97.96 ± 0.36 | 88.76 ± 2.04 | 80 ± 3.59 | % of Inhibition of Control Value (DPPH) ([3]; 1 μM): 41.48 ± 0.95%; % of Inhibition of Control Value (DPPH) ([3]; 5 μM): 67.18 ± 0.62%; % of Inhibition of Control Value (DPPH) ([3]; 10 μM): 82.44 ± 1.65%; SI [2]: 25.23
Cc1ccc(C=Cc2cc(=O)c(O)cn2CC(=O)O)cc1 [7b, [5-Hydroxy-4-oxo-2-(2-p-tolyl-vinyl)-4H-pyridin-1-yl]-acetic acid] | 5.3 ± 0.6 | 5.3 | 4.48 µM and 5.49 µM and 5.91 µM |  |  |  |  | melting point: 256 to 257 °C
CC(C)(C)c1ccc(C=Cc2cc(=O)c(O)cn2CC(=O)O)cc1 [7c, {2-[2-(4-tert-Butyl-phenyl)-vinyl]-5-hydroxy-4-oxo-4H-pyridin-1-yl}-acetic acid] | 2.98 ± 0.73 | 2.98 | 2.06 µM and 3.03 µM and 3.84 µM | > 100 | 25.44 ± 2.36 | 26.10 ± 1.06 | 49.41 ± 0.45 | 
Nc1ccc(C=Cc2cc(=O)c(O)cn2CC(=O)O)cc1 [7j, {2-[2-(4-Amino-phenyl)-vinyl]-5-hydroxy-4-oxo-4H-pyridin-1-yl}-acetic acid] | 8.19 ± 0.43 | 8.19 | 8.07 µM and 7.74 µM and 8.76 µM |  |  |  |  | 
COc1ccc(C=Cc2cc(=O)c(O)cn2CC(=O)O)cc1 [7d, {5-Hydroxy-2-[2-(4-methoxy-phenyl)-vinyl]-4-oxo-4H-pyridin-1-yl}-acetic acid] | 6.78 ± 0.91 | 6.78 | 5.7 µM and 7.92 µM and 6.7 µM |  |  |  |  | I% (ALR2 inhibitory rate) ([1]; raw data, single replicate, log(dose) -5): 54.7%
COc1ccc(C=Cc2cc(=O)c(O)cn2CC(=O)O)cc1OC [7e, {2-[2-(3,4-Dimethoxy-phenyl)-vinyl]-5-hydroxy-4-oxo-4H-pyridin-1-yl}-acetic acid] | 9.56 ± 0.98 | 9.56 | 9.61 µM and 8.33 µM and 10.7 µM |  |  |  |  | 
O=C(O)Cn1cc(O)c(=O)cc1C=Cc1ccc(F)c(F)c1 [7g, {2-[2-(3,4-Difluoro-phenyl)-vinyl]-5-hydroxy-4-oxo-4H-pyridin-1-yl}-acetic acid] | 2.11 ± 0.34 | 2.11 | 2.52 µM and 2.11 µM and 1.7 µM | > 100 | 28.50 ± 0.95 | 55.02 ± 3.00 | 35.8 ± 3.23 | 
